The text below walks through data of paper doi:10.1101/2025.10.24.684310v1 (biorxiv, 2025).

Series [1] in a line: in vitro. The note with it: PAMPA.
Series [2] is described as follows: in vitro. The note with it: PAMPA. This is another data set of the same source. Background: In PAMPA a lipid-coated filter parts donor from acceptor wells.
The nature of series [3]: in vitro. The note with it: human, liver microsomes. (Liver microsomes are a subcellular fraction often used to study metabolism.)
Series [4] in a line: in vitro. The note with it: human, liver microsomes. The source holds these as a separate data set.
Series [5] has as its target hERG (Homo sapiens, UniProt Q12809, species not given). As to the kind of experiment: hERG channel inhibition. It counts as cell-based. Background: The hERG channel carries a current that helps repolarise heart muscle cells.
The nature of series [6]: in vitro. The note with it: human, liver microsomes. This is another data set of the same source.
In series [7] the target is T1, CYP1A2 (Homo sapiens, UniProt P05177).
T1 sequence (P05177 1-516): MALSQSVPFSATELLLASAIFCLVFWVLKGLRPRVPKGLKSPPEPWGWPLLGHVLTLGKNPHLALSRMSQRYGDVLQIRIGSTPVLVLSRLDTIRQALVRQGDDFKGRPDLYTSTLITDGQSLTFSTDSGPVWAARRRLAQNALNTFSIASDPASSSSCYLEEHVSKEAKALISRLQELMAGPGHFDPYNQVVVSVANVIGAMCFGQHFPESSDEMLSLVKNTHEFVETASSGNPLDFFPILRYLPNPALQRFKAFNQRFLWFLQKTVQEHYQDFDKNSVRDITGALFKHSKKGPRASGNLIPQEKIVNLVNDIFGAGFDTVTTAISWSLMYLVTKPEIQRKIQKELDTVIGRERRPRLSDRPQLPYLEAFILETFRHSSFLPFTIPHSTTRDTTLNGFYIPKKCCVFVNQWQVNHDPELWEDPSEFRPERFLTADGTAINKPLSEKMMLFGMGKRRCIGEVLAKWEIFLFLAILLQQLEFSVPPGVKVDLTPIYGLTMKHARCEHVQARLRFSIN
As to the kind of experiment: in vitro.

Series [8] addresses CYP2C9 (Homo sapiens, UniProt P11712). As to the kind of experiment: in vitro.
In series [9] the target is CYP2D6 (Homo sapiens, UniProt P10635). As to the kind of experiment: in vitro.
Series [10] deals with CYP2C19 (Homo sapiens, UniProt P33261). As to the kind of experiment: in vitro.
Sequence of CYP2C19 (P33261 whole entry): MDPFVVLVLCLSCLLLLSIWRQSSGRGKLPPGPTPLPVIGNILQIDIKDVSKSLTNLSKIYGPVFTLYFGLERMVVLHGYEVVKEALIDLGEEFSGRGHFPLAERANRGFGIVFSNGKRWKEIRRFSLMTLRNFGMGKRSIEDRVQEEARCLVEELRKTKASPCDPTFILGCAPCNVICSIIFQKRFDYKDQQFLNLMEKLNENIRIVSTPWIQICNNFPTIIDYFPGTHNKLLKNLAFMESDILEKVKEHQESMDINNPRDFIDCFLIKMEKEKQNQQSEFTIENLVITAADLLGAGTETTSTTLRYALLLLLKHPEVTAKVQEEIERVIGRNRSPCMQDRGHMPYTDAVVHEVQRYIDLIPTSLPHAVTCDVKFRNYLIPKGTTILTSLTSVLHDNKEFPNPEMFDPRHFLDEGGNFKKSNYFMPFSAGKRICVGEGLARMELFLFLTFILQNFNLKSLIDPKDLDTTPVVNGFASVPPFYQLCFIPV

Sequence of hERG (Q12809 whole entry): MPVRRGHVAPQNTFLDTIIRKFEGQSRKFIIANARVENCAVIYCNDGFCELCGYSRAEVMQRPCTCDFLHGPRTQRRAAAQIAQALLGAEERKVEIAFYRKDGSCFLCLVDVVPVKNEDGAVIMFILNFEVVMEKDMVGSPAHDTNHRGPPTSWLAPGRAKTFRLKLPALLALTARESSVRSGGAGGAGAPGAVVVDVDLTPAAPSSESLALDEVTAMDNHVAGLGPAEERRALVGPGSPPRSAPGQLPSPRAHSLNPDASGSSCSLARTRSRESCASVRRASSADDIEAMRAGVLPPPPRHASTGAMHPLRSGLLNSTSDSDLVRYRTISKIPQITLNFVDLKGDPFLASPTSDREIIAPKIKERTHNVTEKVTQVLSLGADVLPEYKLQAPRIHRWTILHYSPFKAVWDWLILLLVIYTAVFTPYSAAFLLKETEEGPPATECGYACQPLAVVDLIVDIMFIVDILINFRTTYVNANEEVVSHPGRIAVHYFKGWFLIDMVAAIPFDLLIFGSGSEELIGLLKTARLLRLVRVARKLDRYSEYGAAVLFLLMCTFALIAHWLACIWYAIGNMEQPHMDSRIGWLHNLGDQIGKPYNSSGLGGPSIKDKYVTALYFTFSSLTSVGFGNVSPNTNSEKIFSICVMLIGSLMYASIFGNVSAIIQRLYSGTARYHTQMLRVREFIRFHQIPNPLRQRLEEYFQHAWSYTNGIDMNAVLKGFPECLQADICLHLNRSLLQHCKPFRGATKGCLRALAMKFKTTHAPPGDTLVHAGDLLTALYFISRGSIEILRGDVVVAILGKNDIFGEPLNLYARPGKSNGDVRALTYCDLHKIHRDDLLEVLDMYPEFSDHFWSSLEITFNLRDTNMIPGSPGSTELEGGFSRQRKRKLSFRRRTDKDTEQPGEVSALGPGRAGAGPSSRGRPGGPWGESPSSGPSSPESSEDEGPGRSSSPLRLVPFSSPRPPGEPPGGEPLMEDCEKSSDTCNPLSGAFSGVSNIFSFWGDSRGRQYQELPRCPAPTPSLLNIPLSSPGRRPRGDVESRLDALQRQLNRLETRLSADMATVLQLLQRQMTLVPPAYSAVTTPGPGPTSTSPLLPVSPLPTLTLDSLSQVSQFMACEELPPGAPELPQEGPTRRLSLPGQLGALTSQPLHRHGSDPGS
Sequence of CYP2D6 (P10635 whole entry): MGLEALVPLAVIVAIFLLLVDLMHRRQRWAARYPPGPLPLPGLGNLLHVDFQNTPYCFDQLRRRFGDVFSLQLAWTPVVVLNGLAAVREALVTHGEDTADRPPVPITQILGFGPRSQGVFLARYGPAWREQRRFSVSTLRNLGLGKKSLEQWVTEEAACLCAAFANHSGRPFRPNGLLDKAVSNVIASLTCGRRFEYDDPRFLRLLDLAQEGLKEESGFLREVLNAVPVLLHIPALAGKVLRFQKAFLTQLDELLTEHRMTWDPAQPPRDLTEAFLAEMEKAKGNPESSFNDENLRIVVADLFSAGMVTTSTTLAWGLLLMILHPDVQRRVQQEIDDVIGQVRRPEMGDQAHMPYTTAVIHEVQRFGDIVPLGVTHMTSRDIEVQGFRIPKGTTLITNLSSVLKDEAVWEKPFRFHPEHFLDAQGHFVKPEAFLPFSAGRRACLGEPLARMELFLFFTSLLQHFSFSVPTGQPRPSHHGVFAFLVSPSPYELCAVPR
Sequence of CYP2C9 (P11712 whole entry): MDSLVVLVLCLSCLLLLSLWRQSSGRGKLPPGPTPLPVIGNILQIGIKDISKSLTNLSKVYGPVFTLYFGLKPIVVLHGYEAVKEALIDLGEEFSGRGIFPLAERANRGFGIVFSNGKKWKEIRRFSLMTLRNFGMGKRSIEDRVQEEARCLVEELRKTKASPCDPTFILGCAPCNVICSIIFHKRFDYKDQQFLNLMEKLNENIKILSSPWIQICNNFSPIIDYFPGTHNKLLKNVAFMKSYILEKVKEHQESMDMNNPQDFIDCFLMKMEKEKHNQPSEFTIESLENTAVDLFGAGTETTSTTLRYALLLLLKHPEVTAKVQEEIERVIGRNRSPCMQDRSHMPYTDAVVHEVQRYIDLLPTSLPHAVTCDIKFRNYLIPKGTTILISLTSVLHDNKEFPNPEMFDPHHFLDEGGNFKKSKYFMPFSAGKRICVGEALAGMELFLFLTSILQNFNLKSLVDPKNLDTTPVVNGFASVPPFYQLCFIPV

For orientation: Papp means the rate of passage across a membrane or cell layer, normalised by area and donor concentration. Low values mean slow passage, high ones fast passage. In series [1], `CCOC(=O)C1=C(C)NC(=O)NC1c1ccc(Cl)c(Cl)c1` (stereo not shown) [U5] came in with a Papp of 15.8 ± 0.5 ×10⁻⁶ cm/s.

On to `CCOC(=O)C1=C(C)NC(=O)NC1c1ccc(C(F)(F)F)cc1` (stereo not shown) [U6], for which the Papp in [1] was found to be 11.5 ± 0.4 ×10⁻⁶ cm/s.

Take `CCOC(=O)C1=C(C)NC(=S)NC1c1ccc(C(F)(F)F)cc1` (stereo not shown) [T6]: in [1], the Papp was > 30 ×10⁻⁶ cm/s.

In [1], `CCOC(=O)C1=C(C)NC(=O)NC1c1cccc(O)c1` (stereo not shown) [U13] displayed an apparent permeability coefficient (Papp) of 0.003 ± 0.001 ×10⁻⁶ cm/s.

`COc1ccc(C2NC(=O)NC(C)=C2C(=O)Nc2ccc(Cl)cc2)cc1` (stereo not shown) [CU3]: in series [2], the Papp is 5.9 ± 0.2 ×10⁻⁶ cm/s.

`CC1=C(C(=O)Nc2ccc(Cl)cc2)C(c2ccc(Cl)cc2)NC(=O)N1` (stereo not shown) [CU2]: the Papp in series [2] was found to be 7.7 ± 0.2 ×10⁻⁶ cm/s.

For orientation: amount remaining means what is left of the initial amount, in per cent. Low values mean a greater loss, high ones greater stability. One may read the microsomal CLint as the rate of metabolic loss divided by the concentration. The low end stands for slow turnover, the high end for rapid turnover. In general, IC50 refers to the point on the concentration scale where inhibition reaches its midpoint. Lower therefore signals inhibition by little substance. A word on the half-life: it is the time needed for the level to fall by half in the phase considered. In series [3], `CCOC(=O)C1=C(C)NC(=S)NC1c1ccc(Cl)cc1` (stereo not shown) [T2] displayed a share remaining at 1 h of 77.7%. In series [1], the Papp came out at 12.2 ± 0.7 ×10⁻⁶ cm/s. In series [4], this compound registered an intrinsic clearance (microsomal CLint) of 7.8 µL/min/mg. Also, the concentration for half-maximal inhibition (IC50) in series [5] is > 10 µM. In addition, the half-life in [6] stood at 2.36 h.

Regarding `CCOC(=O)C1=C(C)NC(=O)NC1c1ccc(F)cc1` (stereo not shown) [U14], the Papp in [1] amounted to 6.2 ± 0.3 ×10⁻⁶ cm/s.

Consider `CCOC(=O)C1=C(C)NC(=S)NC1c1ccc(Cl)c(Cl)c1` (stereo not shown) [T5], for which the Papp in series [1] turned out to be 16.2 ± 0.5 ×10⁻⁶ cm/s.

For `CCOC(=O)C1=C(C)NC(=S)NC1c1ccc(C)cc1` (stereo not shown) [T4], the Papp in series [1] is 10.3 ± 0.3 ×10⁻⁶ cm/s.

In series [1], `COC(=O)C1=C(C)NC(=S)NC1c1cccc(OC)c1` (stereo not shown) [T14] came in with a Papp of 3.5 ± 0.6 ×10⁻⁶ cm/s.

In series [1], `COC(=O)C1=C(C)NC(=O)NC1c1cccc(Br)c1` (stereo not shown) [U12] registered a Papp of 2 ± 0.2 ×10⁻⁶ cm/s.

In turn, `COc1ccc(C2NC(=S)NC(C)=C2C(=O)Nc2ccc(Cl)cc2)cc1` (stereo not shown) [CT3] displayed a Papp in series [2] of 3.4 ± 0.3 ×10⁻⁶ cm/s.

Turning to `CCOC(=O)C1=C(C)NC(=O)NC1c1ccc(Cl)cc1Cl` (stereo not shown) [U7], in [1], the Papp turned out to be 15.3 ± 1 ×10⁻⁶ cm/s.

Consider `CCOC(=O)C1=C(C)NC(=O)NC1c1ccc(F)cc1` (stereo not shown) [U14, Ethyl 4-(4-fluorophenyl)-6-methyl-2-oxo-1,2,3,4-tetrahydropyrimidine-5-carboxylate], for which, in series [3], the fraction remaining at 1 h turned out to be 74.1%. This compound displayed an intrinsic clearance (microsomal CLint) in [4] of 5.4 µL/min/mg. For the same compound, the half-life in series [6] amounted to 2.47 h.

On to `CC1=C(C(=O)Nc2ccc(Cl)cc2)C(c2ccc(C)cc2)NC(=S)N1` (stereo not shown) [CT4], for which the apparent permeability (Papp) in series [2] was 4.6 ± 0.2 ×10⁻⁶ cm/s.

In turn, `CC1=C(C(=O)Nc2ccc(Cl)cc2)C(c2ccc(C)cc2)NC(=O)N1` (stereo not shown) [CU4] yielded an apparent permeability (Papp) in [2] of 5.3 ± 0.2 ×10⁻⁶ cm/s.

For the compound `CCOC(=O)C1=C(C)NC(=S)NC1c1ccccc1Cl` (stereo not shown) [T9, Ethyl 4-(2-chlorophenyl)-6-methyl-2-thioxo-1,2,3,4-tetrahydropyrimidine-5-carboxylate], the fraction remaining at 1 h in series [3] was 82.4%. The microsomal CLint in [4] is 3 µL/min/mg. Besides, in series [6], the half-life is 3.69 h.

In turn, `CC1=C(C(=O)Nc2ccc(Cl)cc2)C(c2ccccc2)NC(=O)N1` (stereo not shown) [CU1] had an apparent permeability coefficient (Papp) in series [2] of 9.5 ± 0.2 ×10⁻⁶ cm/s.

`CCOC(=O)C1=C(C)NC(=S)NC1c1ccc(OC)cc1` (stereo not shown) [T3] came in with an apparent permeability (Papp) in [1] of 8.1 ± 0.5 ×10⁻⁶ cm/s. In addition, the IC50 in series [5] was > 10 µM.

`CC1=C(C(=O)Nc2ccc(Cl)cc2)C(c2ccc(Cl)cc2)NC(=S)N1` (stereo not shown) [CT2] gave an apparent permeability coefficient (Papp) in series [2] of 7.1 ± 0.1 ×10⁻⁶ cm/s.

`CCOC(=O)C1=C(C)NC(=S)NC1c1ccc(OCC)cc1` (stereo not shown) [T10] returned a Papp in series [1] of 0.1 ×10⁻⁶ cm/s.

`CCOC(=O)C1=C(C)NC(=S)NC1c1ccc(F)cc1` (stereo not shown) [T13] came in with a Papp in series [1] of 18.4 ± 1.6 ×10⁻⁶ cm/s.

On to `CC1=C(C(=O)Nc2ccc(Cl)cc2)C(c2ccc(Cl)c(Cl)c2)NC(=O)N1` (stereo not shown) [CU5], for which, in series [2], the apparent permeability coefficient (Papp) is 13.6 ± 0.5 ×10⁻⁶ cm/s.

In series [3], `COC(=O)C1=C(C)NC(=O)NC1c1ccccc1` (stereo not shown) [U15, Methyl 6-methyl-2-oxo-4-phenyl-1,2,3,4-tetrahydropyrimidine-5-carboxylate] gave a fraction remaining at 1 h of 93%. The compound further returned a microsomal CLint in series [4] of 1.2 µL/min/mg. In addition, in series [6], the half-life turned out to be 10.7 h.

In series [2], `CC1=C(C(=O)Nc2ccc(Cl)cc2)C(c2ccccc2)NC(=S)N1` (stereo not shown) [CT1] gave a Papp of 3.6 ± 0.1 ×10⁻⁶ cm/s.

As to `CCOC(=O)C1=C(C)NC(=S)NC1c1cccc(O)c1` (stereo not shown) [T12], the Papp in series [1] amounted to 17.7 ± 0.9 ×10⁻⁶ cm/s.

On to `CC1=C(C(=O)Nc2ccc(Cl)cc2)C(c2ccc(Cl)c(Cl)c2)NC(=S)N1` (stereo not shown) [CT5], for which the apparent permeability (Papp) in [2] amounted to 7.6 ± 1 ×10⁻⁶ cm/s.

What is called inhibition is the relative decrease from the control value, in per cent. On to `CCOC(=O)C1=C(C)NC(=S)NC1c1ccc(OC)cc1` (stereo not shown) [T3, Ethyl 4-(4-methoxyphenyl)-6-methyl-2-thioxo-1,2,3,4-tetrahydropyrimidine-5-carboxylate], for which the inhibition at 1 µM in [7] is -13.3 ± 2%; in series [8], 3.7 ± 1.1%; in [9], -3.2 ± 0.2%; in [10] it was 11.7 ± 4.5%.
